Measured values taken from ChEMBL document CHEMBL1152314, “Antineoplastic agents. 565. Synthesis of combretastatin D-2 phosphate and dihydro-combretastatin D-2” (J Nat Prod, 2009).
Values after ≈ are worked out from the molar mass of the structure shown. Active and inactive are the calls of the source. The calls are words filed in the database; no cut-off is given here.

Legend:
[1] = Inhibition of tubulin polymerization
[2] = tested on: P388; test: Cytotoxicity against mouse P388 cells; type: functional; conditions: read-out: ED50 (the source's name)
[3] = Cytotoxicity against human pancreatic cancer cells; type: functional; conditions: Cancer cell lines
[4] = Cytotoxicity against human lung cancer cells; type: functional; conditions: Cancer cell lines
[5] = Solubility in water at 25 degC; type: physicochemical
[6] = Cytotoxicity against human prostate cancer cells; type: functional; conditions: Cancer cell lines
[7] = Cytotoxicity against human colon cancer cells; type: functional; conditions: Cancer cell lines
[8] = Cytotoxicity against human brain cancer cells; type: functional; conditions: Cancer cell lines
[9] = Cytotoxicity against human breast cancer cells; type: functional; conditions: Cancer cell lines
[10] = tested on: Candida albicans; test: Antimicrobial activity against Candida albicans ATCC 90028; type: functional, organism-based
[11] = tested on: Streptococcus pneumoniae; test: Antimicrobial activity against Streptococcus pneumoniae ATCC 6303; type: functional, organism-based
[12] = tested on: Staphylococcus aureus; test: Antimicrobial activity against Staphylococcus aureus ATCC 29213; type: functional, organism-based
[13] = tested on: Escherichia coli; test: Antimicrobial activity against Escherichia coli ATCC 25922; type: functional, organism-based
[14] = tested on: Cryptococcus neoformans; test: Antimicrobial activity against Cryptococcus neoformans ATCC 90112; type: functional, organism-based
[15] = tested on: Stenotrophomonas maltophilia; test: Antimicrobial activity against Stenotrophomonas maltophilia ATCC 13637; type: functional, organism-based
[16] = tested on: Enterobacter cloacae; test: Antimicrobial activity against Enterobacter cloacae ATCC 13047; type: functional, organism-based
[17] = tested on: Enterococcus faecalis; test: Antimicrobial activity against Enterococcus faecalis ATCC 29212; type: functional, organism-based
[18] = tested on: Micrococcus luteus; test: Antimicrobial activity against Micrococcus luteus Presque Isle 456; type: functional, organism-based
[19] = tested on: Neisseria gonorrhoeae; test: Antimicrobial activity against Neisseria gonorrhoeae ATCC 49226; type: functional, organism-based

Compound | EC50 [2] | GI50 [3] | GI50 [4] | GI50 [6] | GI50 [7] | GI50 [8] | GI50 [9] | other results
COc1ccc(C[C@@H](O)c2cc(OC)c(OC)c(OC)c2)cc1O [COMBRETASTATIN] | 0.011 µg/mL (≈ 0.0329 µM) | – | – | – | – | – | – | IC50 [1]: 5 µM
C1COCCN1.C1COCCN1.O=C1CCc2ccc(OP(=O)(O)O)c(c2)Oc2ccc(cc2)/C=C\CO1 | 86.2 µg/mL | > 10 µg/mL | > 10 µg/mL | > 10 µg/mL | > 10 µg/mL | > 10 µg/mL | > 10 µg/mL | solubility ([5]; water, read-out: solubility): 5 mg/mL
COc1ccc2cc1Oc1ccc(cc1)/C=C\COC(=O)CC2 | 8.1 µg/mL (≈ 26.1 µM) | 7.3 µg/mL (≈ 23.5 µM) | 6.6 µg/mL (≈ 21.3 µM) | 5.6 µg/mL (≈ 18 µM) | 9.4 µg/mL (≈ 30.3 µM) | 2.2 µg/mL (≈ 7.09 µM) | 0.83 µg/mL (≈ 2.67 µM) | –
O=C1CCc2ccc(O)c(c2)Oc2ccc(cc2)CCCO1 [CORNICULATOLIDE A] | > 100 µg/mL | – | – | – | – | – | – | Activity [10]: inactive; Activity [11]: inactive; Activity [12]: inactive; Activity [13]: inactive; Activity [14]: inactive; Activity [15]: inactive; Activity [16]: inactive; Activity [17]: inactive; Activity [18]: inactive; Activity [19]: inactive
COc1ccc(CCC(=O)OC/C=C\c2ccc(F)c([N+](=O)[O-])c2)cc1O | 27 µg/mL (≈ 71.9 µM) | – | – | – | – | – | – | –
O=C(CCc1ccc(OCc2ccccc2)c(O)c1)OC/C=C\c1ccc(F)c([N+](=O)[O-])c1 | > 100 µg/mL | – | – | – | – | – | – | –
O=C1CCc2ccc(OP(=O)([O-])[O-])c(c2)Oc2ccc(cc2)/C=C\CO1.[Na+].[Na+] | 23.9 µg/mL | 22.1 µg/mL | 13.3 µg/mL | 18.2 µg/mL | 25.5 µg/mL | 36.3 µg/mL | 30.5 µg/mL | solubility ([5]; buffer): > 70 mg/mL
O=C1CCc2ccc(OCc3ccccc3)c(c2)Oc2ccc(cc2)CCCO1 | > 100 µg/mL | – | – | – | – | – | – | –
COc1ccc(CCC(=O)OC/C=C\c2ccc(Br)cc2)cc1O | > 100 µg/mL | 16.4 µg/mL (≈ 41.9 µM) | 16.5 µg/mL (≈ 42.2 µM) | 8.9 µg/mL (≈ 22.7 µM) | 17.1 µg/mL (≈ 43.7 µM) | 18.5 µg/mL (≈ 47.3 µM) | 16.4 µg/mL (≈ 41.9 µM) | –
O=C1CCc2ccc(OP(=O)([O-])[O-])c(c2)Oc2ccc(cc2)/C=C\CO1.[K+].[K+] | – | 40.1 µg/mL | 27.8 µg/mL | 14.4 µg/mL | 40.6 µg/mL | 45.2 µg/mL | 34.5 µg/mL | solubility ([5]; buffer): > 50 mg/mL
O=C(CCc1ccc(OCc2ccccc2)c(O)c1)OC/C=C\c1ccc(Br)cc1 | > 100 µg/mL | – | – | – | – | – | – | –
COc1ccc(/C=C\c2cc(OC)c(OC)c(OC)c2)cc1O [COMBRETASTATIN A4] | 0.0034 µg/mL (≈ 0.0107 µM) | – | – | – | – | – | – | –
O=C1CCc2ccc(OCc3ccccc3)c(c2)Oc2ccc(cc2)/C=C\CO1 | > 100 µg/mL | – | – | – | – | – | – | –
O=C1CCc2ccc(OP(=O)([O-])[O-])c(c2)Oc2ccc(cc2)/C=C\CO1.[Li+].[Li+] | 27.1 µg/mL | 35.9 µg/mL | 14.4 µg/mL | 4.3 µg/mL | 27.5 µg/mL | 37.9 µg/mL | 26.1 µg/mL | solubility ([5]; buffer): 20 mg/mL
O=C1CCc2ccc(O)c(c2)Oc2ccc(cc2)/C=C\CO1 | 5.2 µg/mL (≈ 17.5 µM) | 4.8 µg/mL (≈ 16.2 µM) | 6 µg/mL (≈ 20.2 µM) | 2.7 µg/mL (≈ 9.11 µM) | > 10 µg/mL | 4.7 µg/mL (≈ 15.9 µM) | 6.6 µg/mL (≈ 22.3 µM) | IC50 [1]: > 40 µM; Activity [10]: inactive; Activity [11]: inactive; Activity [12]: inactive; solubility ([5]; buffer): 0.5 mg/mL (≈ 1690 µM); Activity [13]: inactive; Activity [14]: inactive; Activity [15]: inactive; Activity [16]: inactive; Activity [17]: inactive; Activity [18]: inactive; Activity [19]: inactive
COc1ccc(CCC(=O)OCCCc2ccc(Br)cc2)cc1O | > 100 µg/mL | – | – | – | – | – | – | –
O=C1CCc2ccc(O)c(c2)Oc2ccc(cc2)[C@H]2O[C@@H]2CO1 | 3.3 µg/mL (≈ 10.6 µM) | – | – | – | – | – | – | IC50 [1]: > 40 µM
